# Measured values taken from article PMC10989073, “Antineoplastic effect of compounds C14 and P8 on TNBC and radioresistant TNBC cells by stabilizing the K-Ras4B^G13D/PDE6δ complex” (Frontiers in Oncology, 2024).
# What was measured:
# [1] = tested on: MDA-MB-231RR xenograft tumors; assay: Orthotopic breast carcinoma xenograft, tumor growth; assay type: in vivo, Nu/Nu nude mice; conditions: female Nu/Nu mice, i.p. daily for 15 days, 30 mg/kg (methods: P8 10 mg/kg)
# Protocol: Female immune-deficient Nu/Nu nude mice at 6–8 weeks of age ([…], Mexico City, Mexico) were maintained in pathogen-free conditions with irradiated chow. The animals were subcutaneously injected in the left 4th mammary gland with 2 × 10^6 MDA-MB-231RR cells per tumor in 0.1 ml of sterile phosphate-buffered saline. When MDA-MB-231RR cells reached palpable tumors (≥100 mm^3), mice were divided randomly into four groups receiving vehicle (10% DMSO, 0.05% carboxy methyl cellulose, and 0.02% in PBS) (n = 5), C14 at 30 mg/kg (n = 5), P8 at 10 mg/kg (n = 5), or cisplatin at 6 mg/kg (n = 5) intraperitoneally injected daily for 15 days. Body weight and tumor volume were measured every third day. Tumor sizes were calculated using the formula [(length × width2)/2] in mm.
# [2] = tested on: Ras-GTP in MDA-MB-231RR cells; assay: Ras activation pull-down assay (Raf-RBD); assay type: cell-based, human; conditions: 3 h pre-treatment at IC50-48H, EGF 100 ng/ml 10 min
# Protocol: (§1) Subsequently, the cells were stimulated with epidermal growth factor (EGF) (100 ng/ml) for 10 minutes. Lysates (1 mg/ml) were exposed to Ras GTP-binding protein (Raf-RBD), following the manufacturer’s instructions. Experiments for each cell type and condition were repeated three times.
# [3] = tested on: Ras-GTP in MDA-MB-231 cells; assay: Ras activation pull-down assay (Raf-RBD); assay type: cell-based, human; conditions: MDA-MB-231, 3 h pre-treatment at IC50-48H, EGF 100 ng/ml 10 min
# Protocol: as §1
# MDA-MB-231 cells = assay: Cell cycle analysis (propidium iodide, flow cytometry); assay type: cell-based, human; conditions: MDA-MB-231, 3 h at IC50-48H; control 10.0%
# Protocol: After 3-h incubation, cells were harvested, washed twice in ice-cold PBS, and fixed overnight in 70% ethanol at 4°C. Then, cells were washed in PBS, collected by centrifugation, and stained with staining buffer (PBS with 50 µg/ml propidium iodide and 100 µg/ml RNase A).
# [4] = tested on: cyclin D1 and GSK3β in MCF-10A cells; assay: Western blotting of cyclin D1 and GSK3β; assay type: cell-based, human; conditions: 3 h, densitometry; for reduction in cyclin D1 protein: C14 and P8 at IC50-24 (Figure 7 legend); for reduction in GSK3β: IC50-24 (Figure 7 legend)
# Protocol: To determine the effect of the C14 and P8 compounds over the protein effectors of K-Ras4B, AKT, and ERK, immunoblotting assays were conducted with specific antibodies. In brief, MCF-10A, MDA-MB-231, and MDA-MB-231RR cells were plated in 100-mm culture dishes until 80% of confluents. Cell adhesion was allowed for 24 h. […] After pre-treatment, cells were stimulated with 100 ng/ml EGF for 10 minutes to promote AKT and ERK activation. Later, the whole-cell extracts were obtained by the lysis of the cells (Cytoskeleton) in the presence of proteases and phosphatase inhibitors. Subsequently, the protein extracts were incubated at 4°C for 40 minutes to be clarified by centrifugation for 10 minutes at 14,000 rpm, at 4°C. The protein concentration of each extract was determined by using the Precision Red Advanced Protein Assay Reagent (Cytoskeleton) Then, approximately 25 μg of protein extract was electrophoresed in 10% sodium dodecyl sulfate–polyacrylamide gel electrophoresis (SDS-PAGE) and transferred to polyvinylidene fluoride (PVDF) membranes (Millipore, Billerica, MA, USA). Blots were probed using the following primary antibodies: Total ERK (Cell Signaling, Danvers, MA, USA), pERK (Cell Signaling), Total AKT (Cell Signaling), pAKT (Cell Signaling), GSK3β (Cell Signaling), and cyclin D1 (Abcam) at a 1:1,000 dilution. As a control, an anti-GAPDH antibody (GeneTex, Irvine, CA, USA) was employed at a 1:100,000 dilution and γ-Tubulin (Invitrogen) 1:5,000. Densitometric analysis of blots was performed using the software ImageJ version 1.45 (National Institutes of Health, Bethesda, […], USA).
# MCF-10A cells [5] = assay: Apoptosis/necrosis assay (Annexin V–propidium iodide, flow cytometry); assay type: cell-based, human
# Protocol: (§2) Apoptosis and necrosis were determined using the Apoptosis/Necrosis Detection kit (Abcam, Cambridge, UK) according to the manufacturer’s instructions. In brief, approximately 500,000 cells were seeded in 6-well plates (Corning) for 24 h. […] Cells were harvested and collected by centrifugation. All the samples were analyzed in triplicate using flow cytometry equipment FACSCalibur instrument (BD Biosciences, San Jose, CA, USA) at […] and 575-nm emission. Data analysis was performed using the FlowJo software (Tree Star Inc., Ashland, OR, USA). All experiments were performed in triplicate.
# MCF-10A cells [6] = assay: Clonogenic assay; assay type: cell-based, human; conditions: 10 to 12 days, C14 and P8 at IC50-48, cisplatin 100 µM, doxorubicin 0.5 µM
# Protocol: The principal aim of a clonogenic assay is to evaluate the effect of chemotherapy agents or new drugs by the measurement of their ability to arrest tumor cell division and their ability to develop new colonies after their exposure to these new drugs ([56]). Therefore, the colony formation ability of the cell lines MCF-10A, MDA-MB-231, and MDA-MB-231RR was evaluated after their exposure to the C14 and P8 compounds. In brief, breast cancer cell lines were cultured in 6-well plates (Corning), seeding 300 cells per well, and incubated at 37°C in 5% CO2 for 24 h. Compounds C14 and P8 were added at the maximum evaluated concentration IC50-48. As controls, cells without treatment and cells treated in the presence of a vehicle (DMSO at 0.66%) were employed (Sigma-Aldrich). […] After 10 days of treatment, cells were fixed with 4% PFA and stained with 0.1% crystal violet in citric acid (Sigma-Aldrich) for 15 minutes. Subsequently, the dye present in the cells was extracted using isopropanol and read at 570 nm in a Synergy-HTX microplate reader (BioTek). Each test was performed in triplicate. Data were expressed as % colonies relative to the untreated control ([56]).
# [7] = Apoptosis/necrosis assay (Annexin V–propidium iodide, flow cytometry); assay type: cell-based, human; conditions: human, MCF-10A cells, 24 h at IC50-24, flow cytometry
# Protocol: as §2
SMILES,reduction in tumor size [1],decrease in Ras-GTP levels [2],reduction in Ras-GTP levels [3],percentage of cells in G2/M (MDA-MB-231 cells),reduction in cyclin D1 protein [4],reduction in GSK3β [4],"viability (MCF-10A cells [5]; 24 h at IC50-24, flow cytometry)",reduction of colony growth (MCF-10A cells [6]),"apoptosis cells (MCF-10A cells [5]; 24 h, cisplatin 100 µM, doxorubicin 0.5 µM)",viability at 24 h [7]
"CN(CC(=O)NC1CCOc2ccccc21)Cc1cccc(Cl)c1 (centres unmarked) [C14, 2-[(3-chlorophenyl)-methyl-methyl-amino]-N-croman-4-yl-acetamide]",40.0%,approximately 20%,20%,6.4%,40%,10%,91.1%,–,–,–
"N.N.[Cl][Pt][Cl] [Cisplatin, cisplatin, reference compound]",–,–,–,–,–,–,–,95%,over 70%,–
"O=C(CN1CCN(c2cccc(Cl)c2)CC1)N[C@@H]1CCOc2ccccc21 [P8, 2-[4-(3-chlorophenyl)piperazin-1-yl]-N-[(4R)-chroman-4-yl]acetamide]",41.6%,over 60%,over 80%,8.2%,40%,40%,–,48%,–,94.3%
